In series [1] the target is T1, BK channels heterologously expressed in Xenopus laevis oocytes (Homo sapiens, UniProt Q12791).
T1 construct: expressed in transfected cells; host or cells: Xenopus laevis oocytes
Description: BK channel opening activity, two-electrode voltage clamp in oocytes. In kind it is cell-based. The note with it: Compound at 30 μM, step from −40 mV to +30 mV, added after a stable current level was reached, FIG. 1. On the procedure:
In this example the BK channel opening activity of a 1,5-diarylsubstituted 1,2,3-triazole derivative for use according to the invention, i.e. CMPD-2 (herein designated Compound A), is determined using BK channels heterologously expressed in Xenopus laevis oocytes.
The electrical current through the BK channel is measured conventional two-electrode voltage clamp. BK current is activated by repeated step protocols. In brief, this protocol goes from a resting membrane potential of −40 mV lasting for 5 s to a depolarised step to +30 mV lasting for 1 s. The protocol was repeated continuously.
Having reached a stable current level, Compound A (30 μM), was added.

The melting point is the temperature of the solid-liquid transition.

T1 sequence (Q12791 whole entry): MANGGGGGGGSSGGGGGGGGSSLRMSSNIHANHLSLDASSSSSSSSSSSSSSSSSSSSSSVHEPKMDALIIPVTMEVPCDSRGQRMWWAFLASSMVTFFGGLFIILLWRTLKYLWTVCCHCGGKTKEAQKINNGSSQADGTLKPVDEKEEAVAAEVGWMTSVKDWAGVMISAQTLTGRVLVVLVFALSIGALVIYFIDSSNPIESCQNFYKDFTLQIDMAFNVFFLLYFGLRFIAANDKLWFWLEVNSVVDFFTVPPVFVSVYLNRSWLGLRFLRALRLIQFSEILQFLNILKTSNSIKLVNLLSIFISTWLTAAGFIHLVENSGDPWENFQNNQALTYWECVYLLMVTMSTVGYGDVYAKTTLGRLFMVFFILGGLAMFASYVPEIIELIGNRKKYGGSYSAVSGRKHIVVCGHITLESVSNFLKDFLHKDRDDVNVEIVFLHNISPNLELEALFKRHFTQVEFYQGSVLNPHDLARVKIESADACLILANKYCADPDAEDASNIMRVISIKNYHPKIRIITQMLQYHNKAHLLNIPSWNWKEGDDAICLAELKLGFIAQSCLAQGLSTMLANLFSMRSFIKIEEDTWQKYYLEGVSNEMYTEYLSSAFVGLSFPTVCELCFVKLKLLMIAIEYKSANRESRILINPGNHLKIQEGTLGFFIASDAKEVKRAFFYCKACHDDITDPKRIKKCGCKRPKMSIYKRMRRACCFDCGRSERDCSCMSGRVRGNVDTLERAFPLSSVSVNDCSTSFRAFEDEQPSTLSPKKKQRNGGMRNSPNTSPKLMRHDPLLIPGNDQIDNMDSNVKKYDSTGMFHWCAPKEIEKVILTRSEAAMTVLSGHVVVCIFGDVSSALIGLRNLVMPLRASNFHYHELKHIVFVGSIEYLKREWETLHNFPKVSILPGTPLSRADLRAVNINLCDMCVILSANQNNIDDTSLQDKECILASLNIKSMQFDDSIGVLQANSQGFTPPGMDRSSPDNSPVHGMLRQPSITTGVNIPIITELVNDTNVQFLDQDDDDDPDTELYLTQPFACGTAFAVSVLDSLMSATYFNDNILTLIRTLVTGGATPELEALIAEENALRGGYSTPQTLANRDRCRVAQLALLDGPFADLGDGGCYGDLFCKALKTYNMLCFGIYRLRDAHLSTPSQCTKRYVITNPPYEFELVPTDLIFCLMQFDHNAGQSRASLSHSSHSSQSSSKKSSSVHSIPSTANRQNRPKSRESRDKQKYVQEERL

In turn, `FC(F)(F)c1cccc(-c2cnnn2-c2cc(Cl)ccc2-c2nnn[nH]2)c1` [CMPD-3, 5-{4-Chloro-2-[5-(3-trifluoromethyl-phenyl)-[1,2,3]triazol-1-yl]-phenyl}-1H-tetrazole] showed a melting point of 230.5 to 232.1 °C.

`FC(F)(F)c1cccc(-c2cnnn2-c2cc(Cl)ccc2OCc2nnn[nH]2)c1` [CMPD-6, 5-{4-Chloro-2-[5-(3-trifluoromethyl-phenyl)-[1,2,3]triazol-1-yl]-phenoxymethyl}-1H-tetrazole] yielded a melting point of 181.1 to 183.6 °C.

Consider `FC(F)(F)c1ccc(-c2ccc(-n3nncc3-c3cc(C(F)(F)F)cc(C(F)(F)F)c3)c(-c3nnn[nH]3)c2)cc1` [Compound A, 5-{4-[5-(3,5-Bis-trifluoromethyl-phenyl)-[1,2,3]triazol-1-yl]-4′-trifluoromethyl-biphenyl-3-yl}-1H-tetrazole], for which the “BK current activated by depolarisation (BK channel opening activity)” value in series [1] is on record as “marked increase”.
